Test results from ChEMBL document CHEMBL1201862, “PubChem BioAssay data set” (2004).
Active and inactive are the calls of the source.

What was measured:
Cytochrome P450 3A4 [1] = molecular target: T1, Cytochrome P450 3A4 (Homo sapiens, UniProt P08684);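 further: CYP3A4 tested as one member of a cytochrome P450 panel screen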
Cytochrome P450 2C9 [2] = molecular target: T2, Cytochrome P450 2C9 (Homo sapiens, UniProt P11712)
Cytochrome P450 2C19 = Cytochrome P450 2C19 (Homo sapiens, UniProt P33261); test: Cytochrome panel assay with activity outcomes. Panel member name: p450-cyp2c19 Compounds with AC50 equal or less than 10 uM are considered active; format: functional
Cytochrome P450 2C9 [3] = molecular target: T2, Cytochrome P450 2C9; remark: listed apart in the source
Cytochrome P450 3A4 [4] = molecular target: T1, Cytochrome P450 3A4; remark: listed apart in the source
Nonstructural protein 1 = Nonstructural protein 1 (Influenza A virus, UniProt Q194T2); format: functional, Influenza A virus (A/California/07/2009(H1N1))
[5] = reduction of Shn3 3'UTR-driven luciferase in osteoblasts – cell-based, Clone20 osteoblasts, firefly luciferase, cherry-picked, dose response (AID 624132); format: functional;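 further: firefly luciferase luminescence from reporter carrying the Shn3 3'UTR in osteoblasts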
[6] = loss of viability in HepG2 cells – cell-based, CellTiter-Glo, cherry-picked, cytotoxicity control for Shn3 inhibitor project, dose response (AID 624134); format: functional
[7] = non-specific 3'UTR reporter inhibition in Clone20-Shn3RL – cell-based, Renilla luciferase, cherry-picked, counter-screen for Shn3 inhibitor project, dose response (AID 624133); format: functional
Cytochrome P450 1A2 = molecular target: T3, Cytochrome P450 1A2 (Homo sapiens, UniProt P05177);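 further: PubChem cytochrome P450 panel assay, CYP1A2 panel member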
T3 sequence (P05177 whole entry): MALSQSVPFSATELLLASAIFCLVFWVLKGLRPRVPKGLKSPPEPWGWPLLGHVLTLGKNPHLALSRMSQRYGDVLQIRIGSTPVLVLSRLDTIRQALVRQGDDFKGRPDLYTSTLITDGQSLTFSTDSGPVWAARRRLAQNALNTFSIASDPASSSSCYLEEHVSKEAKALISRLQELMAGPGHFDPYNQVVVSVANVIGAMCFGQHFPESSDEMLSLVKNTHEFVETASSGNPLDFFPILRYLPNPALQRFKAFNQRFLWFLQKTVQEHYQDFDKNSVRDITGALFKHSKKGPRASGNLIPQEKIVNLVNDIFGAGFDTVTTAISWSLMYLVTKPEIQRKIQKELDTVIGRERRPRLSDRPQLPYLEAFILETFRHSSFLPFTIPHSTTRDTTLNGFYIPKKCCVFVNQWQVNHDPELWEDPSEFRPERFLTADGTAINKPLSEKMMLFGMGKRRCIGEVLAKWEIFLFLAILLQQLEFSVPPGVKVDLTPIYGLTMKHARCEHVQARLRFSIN

[8] = HEK-293T cell viability reduction – luminescence, B-cell screen hits, cytotoxicity control for BCR NF-kB inhibitor project, dose response (AID 489021); format: functional, cell-based;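 further: HEK-293T cells carrying an NF-kB luciferase reporter; cells exposed to compound for about 14 hours before viability readout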
SUMO-activating enzyme = SUMO-activating enzyme (Homo sapiens, UniProt Q9UBT2); test: blockers of UBC9-mediated SUMO conjugation – biochemical, AlphaScreen, SUMOylation inhibitor project, confirmation (AID 2018); format: functional
Bcl-2-related protein A1 = molecular target: T4, Bcl-2-related protein A1 (Mus musculus, UniProt Q07440); format: functional;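 further: confirmatory dose–response counterscreen on Bfl-1, used to check hits from a UBC13 polyubiquitin inhibitor campaign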
T4 sequence (Q07440 whole entry): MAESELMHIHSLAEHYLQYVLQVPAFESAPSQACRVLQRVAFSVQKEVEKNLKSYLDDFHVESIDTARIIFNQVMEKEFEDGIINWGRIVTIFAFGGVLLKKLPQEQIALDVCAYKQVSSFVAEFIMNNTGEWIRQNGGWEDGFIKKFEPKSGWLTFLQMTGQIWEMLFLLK

[9] = molecular target: T5, Ubiquitin-conjugating enzyme E2 N (Homo sapiens, UniProt P61088); format: functional
T5 sequence (P61088 whole entry): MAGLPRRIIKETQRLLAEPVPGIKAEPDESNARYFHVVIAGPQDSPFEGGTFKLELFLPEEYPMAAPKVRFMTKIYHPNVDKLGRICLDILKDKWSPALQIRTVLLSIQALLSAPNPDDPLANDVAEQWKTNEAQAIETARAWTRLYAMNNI

[10] = molecular target: T5, Ubiquitin-conjugating enzyme E2 N; format: functional; remark: listed apart in the source

T2 sequence (P11712 whole entry): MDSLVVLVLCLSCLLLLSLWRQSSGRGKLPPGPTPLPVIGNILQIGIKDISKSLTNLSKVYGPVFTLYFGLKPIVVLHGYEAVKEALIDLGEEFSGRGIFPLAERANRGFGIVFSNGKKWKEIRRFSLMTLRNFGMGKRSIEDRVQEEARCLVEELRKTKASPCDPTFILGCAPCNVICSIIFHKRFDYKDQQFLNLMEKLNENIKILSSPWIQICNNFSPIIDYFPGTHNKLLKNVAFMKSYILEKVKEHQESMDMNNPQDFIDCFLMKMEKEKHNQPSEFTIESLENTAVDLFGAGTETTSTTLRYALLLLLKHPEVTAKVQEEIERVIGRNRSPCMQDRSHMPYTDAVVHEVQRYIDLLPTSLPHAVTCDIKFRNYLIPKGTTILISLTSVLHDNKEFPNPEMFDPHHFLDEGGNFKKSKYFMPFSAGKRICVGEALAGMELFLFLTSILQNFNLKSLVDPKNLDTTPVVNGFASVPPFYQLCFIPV
T1 sequence (P08684 whole entry): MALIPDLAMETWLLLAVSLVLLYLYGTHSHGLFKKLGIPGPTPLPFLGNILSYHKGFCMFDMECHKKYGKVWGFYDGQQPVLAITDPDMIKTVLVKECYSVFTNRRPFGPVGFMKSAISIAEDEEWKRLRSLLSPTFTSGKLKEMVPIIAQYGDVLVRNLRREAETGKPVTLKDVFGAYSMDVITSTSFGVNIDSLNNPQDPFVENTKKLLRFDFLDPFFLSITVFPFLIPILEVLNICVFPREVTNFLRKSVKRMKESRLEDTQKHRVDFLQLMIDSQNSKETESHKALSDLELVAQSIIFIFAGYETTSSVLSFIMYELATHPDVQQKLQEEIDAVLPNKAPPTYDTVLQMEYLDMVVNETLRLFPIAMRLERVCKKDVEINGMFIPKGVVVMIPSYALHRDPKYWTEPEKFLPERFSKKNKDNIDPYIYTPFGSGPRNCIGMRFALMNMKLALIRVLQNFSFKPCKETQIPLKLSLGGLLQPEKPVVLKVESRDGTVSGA
Sequence of Cytochrome P450 2C19 (P33261 whole entry): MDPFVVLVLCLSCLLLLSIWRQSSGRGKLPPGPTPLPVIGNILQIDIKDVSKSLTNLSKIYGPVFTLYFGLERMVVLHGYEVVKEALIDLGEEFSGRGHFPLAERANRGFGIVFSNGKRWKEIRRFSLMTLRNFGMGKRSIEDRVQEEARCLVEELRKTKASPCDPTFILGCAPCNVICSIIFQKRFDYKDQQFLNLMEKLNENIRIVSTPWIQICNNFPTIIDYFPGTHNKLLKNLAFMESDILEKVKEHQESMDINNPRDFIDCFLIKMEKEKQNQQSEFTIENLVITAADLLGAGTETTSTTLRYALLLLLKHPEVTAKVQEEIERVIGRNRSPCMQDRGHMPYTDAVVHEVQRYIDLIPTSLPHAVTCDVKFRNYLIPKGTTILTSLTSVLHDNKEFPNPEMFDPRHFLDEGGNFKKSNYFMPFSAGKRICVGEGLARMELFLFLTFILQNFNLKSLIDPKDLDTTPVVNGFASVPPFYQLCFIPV
Sequence of SUMO-activating enzyme (Q9UBE0 whole entry): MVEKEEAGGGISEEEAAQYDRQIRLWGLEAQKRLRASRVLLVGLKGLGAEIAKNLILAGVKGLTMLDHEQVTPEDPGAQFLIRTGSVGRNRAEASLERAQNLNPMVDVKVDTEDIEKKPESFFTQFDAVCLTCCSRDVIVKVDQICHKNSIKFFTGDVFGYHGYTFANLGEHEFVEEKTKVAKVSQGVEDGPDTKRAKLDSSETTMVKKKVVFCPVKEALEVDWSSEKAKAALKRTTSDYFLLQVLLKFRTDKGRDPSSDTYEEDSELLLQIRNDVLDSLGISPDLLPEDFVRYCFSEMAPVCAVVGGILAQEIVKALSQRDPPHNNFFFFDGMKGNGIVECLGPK
Sequence of SUMO-activating enzyme (Q9UBT2 whole entry): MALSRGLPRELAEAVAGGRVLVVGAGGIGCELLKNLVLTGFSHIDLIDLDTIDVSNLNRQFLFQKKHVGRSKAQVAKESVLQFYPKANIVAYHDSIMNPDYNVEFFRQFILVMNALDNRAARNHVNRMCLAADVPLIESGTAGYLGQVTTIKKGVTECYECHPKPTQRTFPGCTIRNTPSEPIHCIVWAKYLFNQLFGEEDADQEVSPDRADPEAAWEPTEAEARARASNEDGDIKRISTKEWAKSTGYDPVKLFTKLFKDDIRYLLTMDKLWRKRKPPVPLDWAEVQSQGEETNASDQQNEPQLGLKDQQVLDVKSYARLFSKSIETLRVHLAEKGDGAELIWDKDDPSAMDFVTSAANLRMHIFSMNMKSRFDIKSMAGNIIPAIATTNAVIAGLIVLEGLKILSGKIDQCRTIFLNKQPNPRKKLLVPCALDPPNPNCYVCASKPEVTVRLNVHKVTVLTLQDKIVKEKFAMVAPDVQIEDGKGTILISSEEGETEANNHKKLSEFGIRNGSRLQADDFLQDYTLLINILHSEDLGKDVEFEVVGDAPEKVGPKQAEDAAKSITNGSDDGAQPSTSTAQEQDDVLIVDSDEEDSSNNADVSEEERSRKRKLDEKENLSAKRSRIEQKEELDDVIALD
Sequence of Nonstructural protein 1 (Q194T2 whole entry): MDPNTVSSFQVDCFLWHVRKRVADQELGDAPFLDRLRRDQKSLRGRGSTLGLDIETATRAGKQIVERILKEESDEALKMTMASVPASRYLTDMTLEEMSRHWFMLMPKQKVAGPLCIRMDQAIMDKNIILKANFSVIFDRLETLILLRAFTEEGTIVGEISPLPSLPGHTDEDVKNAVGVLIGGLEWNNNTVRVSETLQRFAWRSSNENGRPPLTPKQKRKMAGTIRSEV

SMILES: CNc1oc(-c2cccs2)nc1C#N
- AC50 (Cytochrome P450 3A4 [1]): 28.2 µM (inconclusive)
- AC50 (Cytochrome P450 2C9 [2]): inconclusive

SMILES: CCCCCCCCCCC/C=C\C(C)(C)/C=C\CCCC(=O)O
- AC50 (Cytochrome P450 2C19; read-out: AC50): 25.1 µM (inconclusive)
- AC50 (Cytochrome P450 2C9 [3]): 15.8 µM (inconclusive)
- AC50 (Cytochrome P450 3A4 [4]): inconclusive

SMILES: Oc1c(CN2CCCCC2)ccc2cccnc12
- IC50 (Nonstructural protein 1): 2.05 µM (active)
- AC50 [5]: 2.11 µM (active)
- AC50 [6]: 52.3 µM (active)
- AC50 [7]: 3.77 µM (active)

SMILES: Cc1cccc(Oc2coc3cc(OC(=O)c4cccs4)ccc3c2=O)c1
- AC50 (Cytochrome P450 1A2): 14.1 µM (inconclusive)
- AC50 (Cytochrome P450 2C9 [2]): inconclusive

SMILES: Cc1cc(OC(=O)c2ccccc2Cl)cc(=O)n1C
- IC50 [8]: > 80 µM (inactive)

SMILES: Cc1ccc(NN=C2C(=O)NC(=O)NC2=O)c([N+](=O)[O-])c1
- AC50 (Cytochrome P450 2C19): inconclusive
- AC50 (Cytochrome P450 1A2): 17.8 µM (inconclusive)
- AC50 (Cytochrome P450 2C9 [2]): inconclusive

SMILES: O=C(c1cnccn1)N1CCC2(CC1)CCN(c1ccccc1)CC2
- AC50 (Cytochrome P450 3A4 [4]): inconclusive

SMILES: O=C(Nc1nnc(-c2ccccc2SCc2ccccc2)s1)Nc1ccccc1F
- IC50 (SUMO-activating enzyme): 46.5 µM (active)

SMILES: Cc1ccc(C(=O)N2CCCC(c3ccc(Cl)cc3)=N2)cc1
- IC50 [8]: > 80 µM (inactive)

SMILES: O=C(Nc1ccc(C(=O)NCCCN2CCN(c3ccc(F)cc3)CC2)cc1)C1=CSCCO1
- IC50 (Bcl-2-related protein A1): > 20 µM (inactive)
- IC50 [9]: 12.5 µM (active)
- IC50 [10]: 10.3 µM (active)

SMILES: CCCS(=O)(=O)c1ncc(Cl)c(C(=O)Nc2ccc(S(=O)(=O)Nc3ncccn3)cc2)n1
- IC50 (Bcl-2-related protein A1): > 20 µM (inactive)
- IC50 [9]: 14 µM (active)
- IC50 [10]: > 20 µM (inactive)
